Results from patent US11684067B2, “Generation of peroxyformic acid through polyhydric alcohol formate” (priority 2014, dated 2023).

What was measured:
Format in all cases: cell-based
[1] = tested on: Enterococcus hirae ATCC 10541; assay: Bactericidal activity of ester PFA versus POAA, EN 1276, dirty conditions; conditions: 20°C
Excerpt: (§1) Additional Staphylococcus, Enterococcus and Pseudomonas pathogens were used to evaluate the micro efficacy of ester PFA generated according to methods of the present invention in comparison to POAA.

[2] = tested on: Staphylococcus aureus ATCC 6538; assay: as above; conditions: 20°C
Excerpt: as §1

[3] = tested on: Pseudomonas aeruginosa ATCC 15442; assay: as above; conditions: 20°C
Excerpt: as §1

[4] = Laundry disinfection efficacy, EPA protocol on 100% cotton carriers (Table 38); conditions: pH 7.7, 500 ppm hard water; for Log survivors (CFU/carrier) / Log reduction: 18 ppm, 40° C., 5 minute exposure; for Log survivors (CFU/carrier): cotton carriers; for Log reduction: vs water control
Protocol: The microbial efficacy of peroxyformic acid was also tested following the EPA protocol on 100% cotton carriers against a water control. The test conditions were pH 7.7, 500 ppm hard water, 40° C. and 5 minute exposure time. In comparison, the performance of peracetic acid was also tested under the same conditions.

[5] = tested on: Bacillus subtilis ATCC 6633; assay: Sporicidal activity of ester PFA, dirty conditions (Example 20); conditions: 5 minutes
Excerpt: (§2) Various Bacillus and Aspergillus pathogens were used to evaluate the micro efficacy of ester PFA generated according to methods of the present invention.

[6] = tested on: Bacillus subtilis ATCC 19659; assay: as above; conditions: 5 minutes
Excerpt: as §2

[7] = tested on: Aspergillus brasiliensis ATCC 16404; assay: Fungicidal activity of ester PFA, dirty conditions (Example 20); conditions: 5 minutes
Excerpt: as §2

[8] = 20 ppm PFA pH 6.61 / 24.8 ppm POAA pH 6.73, 5 minutes
[9] = 30 ppm PFA pH 6.74 / 37.6 ppm POAA pH 6.90, 5 minutes
[10] = 50 ppm PFA pH 6.60 / 62.4 ppm POAA pH 6.98, 5 minutes
[11] = Klebsiella pneumoniae ATCC 4352
[12] = Staphylococcus aureus ATCC 6538

In the case of `O=COO` [PFA, peroxyformic acid], the “Average CFU/mL” value [1, 8] is reported as 6.30E + 03 CFU/mL, the “Log10 Growth” value [1, 8] is reported as 3.80 Log10 and the “Average CFU/mL” value [1, 9] is reported as 2.15E + 02 CFU/mL. For the same compound, the “Log10 Growth” value [1, 9] was 2.33 Log10, the “Average CFU/mL” value [1, 10] was <140 CFU/mL and the “Log10 Growth” value [1, 10] was <2.15 Log10. For the same compound, the “Average CFU/mL” value [2, 8] was <140 CFU/mL, the “Log10 Growth” value [2, 8] was <2.15 Log10 and the “Average CFU/mL” value [2, 9] was <140 CFU/mL. The “Log10 Growth” value [2, 9] was <2.15 Log10, the “Average CFU/mL” value [2, 10] was <140 CFU/mL and the “Log10 Growth” value [2, 10] was <2.15 Log10. The “Average CFU/mL” value [3, 8] was <140 CFU/mL, the “Log10 Growth” value [3, 8] was <2.15 Log10 and the “Average CFU/mL” value [3, 9] was <140 CFU/mL. For the same compound, the “Log10 Growth” value [3, 9] was <2.15 Log10, the “Average CFU/mL” value [3, 10] was <140 CFU/mL and the “Log10 Growth” value [3, 10] was <2.15 Log10. For the same compound, the “Log survivors (CFU/carrier)” value [4, 11] was <1.00 log10 CFU/carrier, the Log reduction [4, 11] was >5.12 and the “Log survivors (CFU/carrier)” value [4, 12] was 1.63 log10 CFU/carrier. For the same compound, the Log reduction [4, 12] was 5.22, the “kill compared with peracetic acid” value ([4]; 40°C, 5 minute, less than half of the dose of peracetic acid) was “significant better kill than peracetic acid” and the “Log10 Growth” value ([5]; 200 ppm PFA pH 5.81, 35°C) was <2.18 Log10. For the same compound, the “Log10 Reduction” value ([5]; 200 ppm PFA pH 5.81, 35°C) was >3.91 Log10, the “Log10 Growth” value ([5]; 250 ppm PFA pH 5.82, 35°C) was <2.18 Log10 and the “Log10 Reduction” value ([5]; 250 ppm PFA pH 5.82, 35°C) was >3.91 Log10. For the same compound, the “Log10 Growth” value ([5]; 300 ppm PFA pH 5.91, 35°C) was <2.18 Log10, the “Log10 Reduction” value ([5]; 300 ppm PFA pH 5.91, 35°C) was >3.91 Log10 and the “Log10 Growth” value ([5]; 350 ppm PFA pH 5.88, 35°C) was <2.18 Log10. The “Log10 Reduction” value ([5]; 350 ppm PFA pH 5.88, 35°C) was >3.91 Log10, the “Log10 Growth” value ([6]; 200 ppm PFA pH 5.81, 35°C) was <2.18 Log10 and the “Log10 Reduction” value ([6]; 200 ppm PFA pH 5.81, 35°C) was >3.87 Log10. The “Log10 Growth” value ([6]; 250 ppm PFA pH 5.82, 35°C) was <2.18 Log10, the “Log10 Reduction” value ([6]; 250 ppm PFA pH 5.82, 35°C) was >3.87 Log10 and the “Log10 Growth” value ([6]; 300 ppm PFA pH 5.91, 35°C) was <2.18 Log10. For the same compound, the “Log10 Reduction” value ([6]; 300 ppm PFA pH 5.91, 35°C) was >3.87 Log10, the “Log10 Growth” value ([6]; 350 ppm PFA pH 5.88, 35°C) was <2.18 Log10 and the “Log10 Reduction” value ([6]; 350 ppm PFA pH 5.88, 35°C) was >3.87 Log10. The “Log10 Growth” value ([7]; 200 ppm PFA pH 5.81, 35°C) was >4.22 Log10, the “Log10 Reduction” value ([7]; 200 ppm PFA pH 5.81, 35°C) was <1.89 Log10 and the “Log10 Growth” value ([7]; 250 ppm PFA pH 5.82, 35°C) was 3.55 Log10. For the same compound, the “Log10 Reduction” value ([7]; 250 ppm PFA pH 5.82, 35°C) was 2.56 Log10, the “Log10 Growth” value ([7]; 300 ppm PFA pH 5.91, 35°C) was 3.38 Log10 and the “Log10 Reduction” value ([7]; 300 ppm PFA pH 5.91, 35°C) was 2.73 Log10. The “Log10 Growth” value ([7]; 350 ppm PFA pH 5.88, 35°C) was 3.46 Log10 and the “Log10 Reduction” value ([7]; 350 ppm PFA pH 5.88, 35°C) was 2.65 Log10.
